Laboratory results: patent publication US20220305015A1, “COMBINATORIAL THERAPY TARGETING PARP1 AND RTK” (Board of Regents, The University of Texas System, priority 2019, published 2022)

Key:
[1] = system: BR# 17 cells; experiment: BR# 17 orthotopic xenograft mouse model; format: in vivo, mice; settings: BR# 17 model; oral gavage daily; olaparib 40, AZD4547 8, talazoparib 0.25, PD173074 15 mg/kg per day
Method: (§1) Animal studies were performed following a protocol approved by The University of Texas MD Anderson Cancer Center Institutional Animal Care and Use Committee. Female nude mice were purchased from the Department of Experimental Radiation Oncology at MD Anderson. For BR# 09 and BR# 17 xenograft mouse models, two million cells were mixed with 50% (v/v) growth factor reduced Matrigel matrix (Corning) and inoculated into the mammary fat pads of 6- to 8-week-old female nude mice. For the 4T1 model, female Balb/c mice were purchased from Jackson Laboratory. A total of 50,000 4T1 cells were mixed with Matrigel matrix and inoculated into the mammary fat pad of 6-week-old female Balb/c mice. Inhibitors were dissolved in vehicle solvent containing 10% dimethylacetamide (Sigma-Aldrich), 5% Kolliphor HS 15 (Sigma-Aldrich), and 85% phosphate-buffered saline (Evans et al., 2017). […] Treatment with inhibitors started when tumor volumes reached a mean of 120 mm^3. Mice were treated using oral gavage daily for 20 days followed by 3 days with no drugs to prevent severe weight loss. After the first cycle, treatment was continued on a schedule of 6 days on and 1 day off. Mouse weight and tumor volume were measured three times every week. Tumor volume was estimated using the following formula: volume (mm^3) =length (mm)×width (mm)×0.5 width (mm), where length is the longest axis of the tumor. Mice were euthanized using CO2 when the tumor volume reached 2,000 mm^3. For the blood chemical test, mouse cardiac blood was collected by veterinarians in the Department of Veterinary Medicine and Surgery at MD Anderson after 16 days of treatment. Concentrations of alanine aminotransferase, aspartate aminotransferase, and blood urea nitrogen in Balb/c mice were referred to North American colonies of Charles River Balb/c mice.

[2] = system: BR# 09 cells; experiment: BR# 09 orthotopic xenograft mouse model; format: in vivo, mice; settings: for tumor growth: BR# 09 model, oral gavage daily, olaparib 40, AZD4547 8, talazoparib 0.25, PD173074 15 mg/kg per day; for talazoparib-induced FGFR phosphorylation in tumors: 3 days
Method: as §1

[3] = system: HCC1806-BR cells; experiment: MTT assay, survival of HCC1806-BR and HCC1806 parental cells; format: cell-based; settings: 6 days of PARPi
Method: FIGS. 7A-7B. Activation of FGFR3 in HCC1806-BR cells. […] HCC1806-BR cells were developed by treating HCC1806 cells with […] talazoparib continuously for 9 months. Survival of HCC1806-BR and HCC1806 parental cells in response to talazoparib, olaparib, and rucaparib was measured by exposing cells to various concentrations of the indicated PARPi for 6 days before performing the MTT assay. (FIG. 7B) Antibody arrays of receptor tyrosine kinase activation in HCC1806 parental cells and HCC1806-BR cells. Cells were treated with either dimethyl sulfoxide (DMSO) or talazoparib overnight before being harvested for RTK antibody array analysis. PBS, phosphate-buffered saline.
(§2) Cells were seeded at a concentration of 1,000 cells/well in a 96-well plate and cultured overnight before treatments with inhibitors. Inhibitor-containing media was refreshed every 3 days for a 6-day treatment schedule. Cells were incubated with 0.5 mg/ml thiazolyl blue tetrazolium bromide (Sigma-Aldrich) for 2 hours, and formazan crystals were dissolved using DMSO. Optical density at 565 nm was measured and survival percentages were calculated by normalizing the optical density value of each treatment group to that of the control group, treated with DMSO only. Half-maximal inhibitory concentrations of inhibitors were calculated using the standard curve interpolate function in GraphPad Prism 8.

[4] = system: SUM149-derived talazoparib-resistant (BR) cells; experiment: MTT assay, cell survival; format: cell-based; settings: for cross-resistance of BR cells to PARPi: talazoparib-resistant BR cells, MTT assay
Method: as §2
For Western blot signal quantification, signal intensities were analyzed using Image Studio Lite (version 5.2; LI-COR Biosciences). Signals of PARP1, PARylation, FGFR3, and phosphorylated FGFR were first normalized to house-keeping proteins (tubulin, actin, or GAPDH) of each sample before being normalized to the control groups. Every independent experiment repeat was quantified individually. Fold changes in Western blot signals were analyzed by a nonparametric Friedman test using the GraphPad Prism 8.0 software. A p value of less than 0.05 was considered statistically significant: *p <0.05; **p <0.002; ***p <0.001. Combination index experiments were designed according to the Chou-Talalay method^39, and results were calculated using Compusyn software.

[5] = system: BR# 17 cells; experiment: yH2AX foci immunofluorescence staining after MMS; format: cell-based; settings: after MMS removal
Method: FIGS. 2A-2C: Inhibition of FGFR3 decreases DNA damage repair. (FIG. 2A) SUM149-derived talazoparib-resistant (BR)# 17 cells were treated for 1 hour with methyl methanesulfonate (MMS), talazoparib (Tala), and PD173074 (PD) as indicated. After MMS removal, cells were cultured for the indicated time before immunofluorescence staining. Representative images of yH2AX (green) and DNA (blue) are shown. […] (FIG. 2B) For comet assay analysis, BR# 09 cells were incubated for another 3 hours after MMS removal. DNA damage was normalized to that of the talazoparib-treated group. Mean ±standard deviation is shown (n >100). (FIG. 2C) Combination index (CI) of talazoparib and PD173074 in BR cells, measured by colony formation assay. Analysis of variance was used for statistical comparisons.
Immunofluorescence staining and confocal microscopy were performed as previously described (Chen, et al., 2019). Cells were treated with DMSO (solvent control), talazoparib (125 nM for BR# 09; 250 nM for BR# 17), PD173074 (10 μM), or the combination of talazoparib and PD173074 for the time indicated. […] In both immunostaining and the proximity ligation assay, images of the cells were captured and analyzed with an LSM 710 laser confocal microscope and Zeiss Zen software (Carl Zeiss) and foci counting was performed using BlobFinder (Allalou and Wahlby, 2020).

[6] = system: SUM149-derived talazoparib-resistant (BR) cells; experiment: Colony formation assay; format: cell-based; settings: colony formation assays; BR cells vs SUM149 parental cells
Method: SUM149 cells (600 cells/well), BR# 09 cells (800 cells/well), and BR# 17 cells (1,000 cells/well) were seeded into a 12-well plate 18 hours before treatments. Inhibitor-containing media was refreshed every 2 days. Cells were fixed using 4% paraformaldehyde after 10-14 days of treatment. Colonies were stained with 0.5% crystal violet before plates were imaged, and colony number was quantified using the Celigo imaging cytometer (Nexcelom Bioscience). Cell survival rate was calculated by normalizing the number of colonies in each well to that of the vehicle-treated well on the same culture plate.

[7] = biological target: T1, FGFR3 (Homo sapiens, UniProt P22607); experiment: Western blot of FGFR phosphorylation in cells treated with MMS and talazoparib; format: cell-based; settings: BR# 09 and BR# 17 cells; 5 μM FGFRi
T1 construct: endogenous in cells; host or cells: SUM149 parental cells and SUM149-derived talazoparib-resistant BR cells (BR#09, BR#17)
Method: (FIG. 8B) BR# 17 cells were treated with 250 nM talazoparib and 0.01% MMS and FGFRi for 1 hour before being fixed and subjected to immunofluorescence staining with antibodies against FGFR3 (TexasRed, red) and yH2AX (FITC, green).

[8] = system: p-Y158 PARP1; experiment: Western blot of Y158-phosphorylated PARP1 in BR cells; format: cell-based
Description: FIGS. 3A-3E: FGFR3 mediates PARP inhibitor resistance by phosphorylating PARP1 at Y158 residue. (FIG. 3A) Proximity ligation assay (PLA) signals of FGFR3 and PARP1 (red), phalloidin (green), and DNA (blue) were merged in representative images of the treatment indicated (MMS, methyl methanesulfonate; Tala, talazoparib; PD, PD173074; BR, SUM149-derived talazoparib-resistant cells). Mean ±95% confidence interval PLA signals in each cell nucleus are shown in the histograms (n >100). *p <0.05; ***p <0.001; n.s., not significant. (FIG. 3B) Cell survival of BR cells with PARP1 knockdown expressing hemagglutinin-tagged vector control (Neo), wild-type PARP1 (WT), or PARP1^Y158F (Y158F) mutant in response to talazoparib, measured by MTT assay (mean ±standard deviation; n >3). (FIG. 3C) BR# 17 cells were treated with MMS, talazoparib, and PD173074 as indicated for Western blot analysis. (FIG. 3D) Combination index (CI) of talazoparib and PD173074 in BR# 17 cells expressing PARP1^WT or PARP1^Y158F measured by MTT assay. (FIG. 3E) Cells were harvested at different time points after 40 minutes of treatment with talazoparib and MMS. […]
The precipitated protein complex was then washed and subjected to Western blot analysis performed as described previously (Chen, et al., 2019). Signals were detected using the ImageQuant 4000 system (GE Healthcare) and quantified using Image Studio Lite.

[9] = biological target: T2, PARP1 (Homo sapiens, UniProt P09874); experiment: PARP trapping assay (chromatin-bound PARP1); format: cell-based; settings: BR cells, 10 μM PD173074, 100 nM talazoparib, MMS
T2 construct: endogenous in cells; host or cells: SUM149-derived talazoparib-resistant (BR) cells

[10] = biological target: His-tagged PARP1 recombinant protein (UniProt P09874)
Chain of His-tagged PARP1 recombinant protein (P09874 whole entry, looked up): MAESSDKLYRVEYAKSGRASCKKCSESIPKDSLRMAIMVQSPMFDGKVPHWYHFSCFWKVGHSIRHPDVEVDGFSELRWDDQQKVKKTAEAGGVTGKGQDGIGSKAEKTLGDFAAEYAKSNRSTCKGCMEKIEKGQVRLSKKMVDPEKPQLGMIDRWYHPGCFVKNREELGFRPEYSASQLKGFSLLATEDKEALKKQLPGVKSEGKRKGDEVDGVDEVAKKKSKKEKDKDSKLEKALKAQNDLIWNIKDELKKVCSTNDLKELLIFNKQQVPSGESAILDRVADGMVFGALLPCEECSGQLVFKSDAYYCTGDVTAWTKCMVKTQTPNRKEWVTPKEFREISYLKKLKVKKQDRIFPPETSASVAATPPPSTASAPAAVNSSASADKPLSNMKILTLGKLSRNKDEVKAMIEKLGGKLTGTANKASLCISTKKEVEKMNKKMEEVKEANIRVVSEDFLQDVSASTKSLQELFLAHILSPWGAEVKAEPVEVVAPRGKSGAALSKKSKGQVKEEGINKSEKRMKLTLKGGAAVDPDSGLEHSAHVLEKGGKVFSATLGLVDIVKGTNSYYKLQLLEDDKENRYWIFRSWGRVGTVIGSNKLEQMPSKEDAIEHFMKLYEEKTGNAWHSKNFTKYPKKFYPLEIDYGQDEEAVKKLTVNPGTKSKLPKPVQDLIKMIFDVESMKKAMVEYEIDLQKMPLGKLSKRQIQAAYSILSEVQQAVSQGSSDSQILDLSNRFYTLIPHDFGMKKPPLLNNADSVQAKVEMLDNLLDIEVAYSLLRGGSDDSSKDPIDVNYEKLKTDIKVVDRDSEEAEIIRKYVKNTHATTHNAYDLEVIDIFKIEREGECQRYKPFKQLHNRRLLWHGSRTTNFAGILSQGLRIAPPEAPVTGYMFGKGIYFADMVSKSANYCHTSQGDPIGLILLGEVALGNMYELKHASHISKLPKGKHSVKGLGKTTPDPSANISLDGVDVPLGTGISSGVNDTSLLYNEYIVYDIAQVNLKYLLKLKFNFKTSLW

T2 sequence (P09874 whole entry): as the sequence (P09874 whole entry, looked up) above
T1 sequence (P22607 23-806): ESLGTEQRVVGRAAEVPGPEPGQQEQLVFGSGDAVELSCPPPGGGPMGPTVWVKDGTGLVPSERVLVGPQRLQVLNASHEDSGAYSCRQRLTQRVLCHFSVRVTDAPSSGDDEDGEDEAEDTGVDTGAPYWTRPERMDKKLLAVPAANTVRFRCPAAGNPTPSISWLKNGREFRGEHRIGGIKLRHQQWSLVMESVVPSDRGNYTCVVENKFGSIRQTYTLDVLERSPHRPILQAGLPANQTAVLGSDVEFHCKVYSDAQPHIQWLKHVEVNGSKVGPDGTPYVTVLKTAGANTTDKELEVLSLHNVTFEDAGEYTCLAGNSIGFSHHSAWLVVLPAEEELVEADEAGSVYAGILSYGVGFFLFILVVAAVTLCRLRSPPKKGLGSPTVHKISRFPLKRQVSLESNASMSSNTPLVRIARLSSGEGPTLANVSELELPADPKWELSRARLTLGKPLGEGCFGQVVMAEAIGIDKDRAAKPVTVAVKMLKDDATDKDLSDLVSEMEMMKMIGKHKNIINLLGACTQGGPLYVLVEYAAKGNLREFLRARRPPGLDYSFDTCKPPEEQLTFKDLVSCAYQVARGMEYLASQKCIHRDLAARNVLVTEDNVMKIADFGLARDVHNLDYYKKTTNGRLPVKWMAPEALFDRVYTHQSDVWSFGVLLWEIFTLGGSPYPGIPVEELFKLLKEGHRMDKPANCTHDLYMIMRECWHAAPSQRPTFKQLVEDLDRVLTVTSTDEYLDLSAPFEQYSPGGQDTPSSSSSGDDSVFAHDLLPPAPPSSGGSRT

| Compound | tumor growth [1] | tumor growth [2] | resistance of HCC1806-BR cells compared with HCC1806 parental cells [3] | cross-resistance of BR cells to PARPi [4] | other results |
| --- | --- | --- | --- | --- | --- |
| AZD4547 | inhibited tumor growth | not |  |  |  |
| CNCc1ccc(-c2[nH]c3cc(F)cc4c3c2CCNC4=O)cc1 [rucaparib] |  |  | more resistant | cross-resistance |  |
| C[C@]1(c2nc3c(C(N)=O)cccc3[nH]2)CCCN1 [veliparib] |  |  |  | cross-resistance |  |
| O=C(c1cc(Cc2n[nH]c(=O)c3ccccc23)ccc1F)N1CCN(C(=O)C2CC2)CC1 [olaparib] | did not inhibit tumor growth | did not inhibit tumor growth | more resistant | cross-resistance |  |
| Cn1ncnc1[C@H]1c2n[nH]c(=O)c3cc(F)cc(c23)N[C@@H]1c1ccc(F)cc1 [talazoparib] | did not inhibit tumor growth | did not inhibit tumor growth | more resistant |  | yH2AX foci at 8 hours compared with 4 hours [5]: significantly decreased; half-maximal inhibitory concentration in BR cells relative to parental cells ([4]; MTT assays, BR cells vs SUM149 parental cells): more than 100 fold; increase in resistance to talazoparib on PARP1 knockdown ([4]; SUM149, BR# 09 and BR# 17 cells with shPARP1 vs non-targeting shRNA control): ≥ 10 fold; half-maximal inhibitory concentration in BR cells relative to parental cells [6]: more than 100 fold; FGFR3 phosphorylation in tumors ([2]; tumors harvested after 3 days of treatment, talazoparib alone): induced |
| CCN(CC)CCCCNc1ncc2cc(-c3cc(OC)cc(OC)c3)c(NC(=O)NC(C)(C)C)nc2n1 [PD173074] | did not inhibit tumor growth | did not inhibit tumor growth |  |  | FGFR phosphorylation in response to MMS and talazoparib [7]: inhibited; yH2AX foci at 8 hours compared with 4 hours [5]: significantly decreased; p-Y158 PARP1 level [8]: diminished; talazoparib-induced PARP1 trapping [9]: prolong; body weight ([2]; BR xenograft mouse models, PD173074 15 mg/kg per day, alone or with talazoparib 0.25 mg/kg per day, long-term treatment): no loss of body weight; talazoparib-induced FGFR phosphorylation in tumors ([2]; PD173074 10 mg/kg per day): inhibited; talazoparib-induced FGFR phosphorylation in tumors ([2]; PD173074 20 mg/kg per day): less than the basal levels |
| activated FGFR kinase domain |  |  |  |  | tyrosine phosphorylation in in vitro kinase assay (Western blot with anti-phospho-tyrosine antibodies; mass spectrum analysis) [10]: FGFR can phosphorylate PARP1 at tyrosine (Y)158 and Y176 amino acids |
